Values joined by “and” are separate entries in the source; they are usually repeats but may differ in a detail not shown here. Equal entries are not always repeated. Where two headings read alike, the source gives them in different places.
Legend:
HepaRG™ cells [1] = tested on: HepaRG™ cells
Source text: Cryopreserved HepaRG™ (HPRGC10), a terminally differentiated hepatic cell line, was purchased from ThermoFisher Scientific (Waltham, MA). HepaRG™ was thawed and cultured according to manufacturer's instructions. Briefly, the general purpose working medium was WEM supplemented with 1X GlutaMAX™ and 1X HepaRG™ Thaw, Plate, & General Purpose Medium Supplement. The metabolism working medium was WEM supplemented with 1X GlutaMAX™ and HepaRG™ Maintenance/Metabolism Medium Supplement. HepaRG™ cells were thawed in the general purpose working medium and plated in a 96-well plate coated with collagen I at 100 000 cells/well. One day after plating, the general purpose working medium was changed to the metabolism working medium. The metabolism working medium was renewed on day 4 and day 6 after plating. On day 7, the cells were treated in the metabolism working medium.
(§1) To load cells into microwells, ∼2000–200 000 cells in suspension were placed into each macrowell, and the chip was incubated at 37°C in the presence of 5% CO2 for 15 min. Cell were loaded into microwells by gravity, and excess cells were then washed off with PBS by shear force. The chip was covered with a layer of overlay agarose (1% w/v low-melting point agarose solution in PBS, kept molten at 43°C until use). For complete gelation of the overlay agarose, the chip was kept at room temperature for two minutes followed by 2 min at 4°C.
(§2) The alkaline comet assay was performed as previously ([15],[79]). Sodium chloride (NaCl, 7581), disodium EDTA (Na2EDTA, 4931), and sodium hydroxide pellets (NaOH, 7708) were purchased from VWR, Radnor, PA. Trizma® base (T1503), Trizma® HCl (T5941) and Triton X-100 (X-100) were obtained from MilliporeSigma, St. Louis, MO. 10 000× SYBR™ Gold nucleic acid gel stain was obtained from ThermoFisher Scientific, Waltham, MA.
(§3) The alkaline lysis buffer (pH ∼ 10) was a solution of 2.5 M NaCl, 100 mM Na2EDTA, 10 mM Trizma® base, and 1% (v/v) Triton X-100 dissolved in deionized H2O (dI H2O). […] The neutralization buffer (pH ∼ 7.5) was prepared by dissolving Trizma® HCl in distilled H2O to a final concentration of 0.4 M.
(§4) Cells encapsulated in CometChip were lysed in the alkaline lysis buffer overnight at 4°C. The nuclei were unwound in the alkaline unwinding buffer for 40 min at 4°C, and the DNA was electrophoresed in the same buffer at the same temperature for 30 min at 1 V/cm and ∼300 mA. The CometChip was then washed three times in neutralization buffer by submerging for 5 min each time.
(§5) The DNA on CometChip was stained for 15 min at room temperature with 1× of SYBR™ Gold diluted in PBS, protected from light. Fluorescent images of the comets were captured at 40× magnification using an epifluorescence microscope (Nikon Eclipse 80i, Nikon Instruments, Inc., Melville, NY, USA) with a 480 nm excitation filter. Image acquisition was achieved by automatic scanning using a motorized XY stage. Comet images were automatically analyzed using Guicometanalyzer, a custom software developed in MATLAB (The MathWorks Inc., Natick, MA, USA) as previously described ([15]). For each condition, 100 comets or more were analysed. Outputs from Guicometanalyzer were processed and imported to a spreadsheet (Microsoft Excel, Microsoft Office Suite 2016) using Comet2Excel, an in-house software developed in Python (Python Software Foundation, Python version 2.7.10). Software is freely available upon request.
For this experiment, the comets were analysed using Trevigen® Comet Analysis Software.
(§6) A vehicle control condition was included by diluting DMSO in cell culture medium to get a final concentration of 0.5%. Cells were incubated with the test compound for 24 h at 37°C in the presence of 5% CO2.
HepaRG™ were incubated with the test compound for 24 h at 37°C in the presence of 5% CO2. A vehicle control (1% DMSO) was included.

[2] = cited from earlier work
HepG2 cells = tested on: HepG2 cells
Description: HepG2 (ATCC® HB-8065™), an immortalized cell line derived from human hepatocellular carcinoma, was obtained from the American Type Culture Collection (Manassas, VA). HepG2 cells were cultured in high-glucose DMEM supplemented with 10% FBS, 1× GlutaMAX™, and 100 U/ml Pen-Strep. For chemical exposures, exponentially growing cells were plated in a tissue cultured treated 96-well plate two days before treatment.
as §1, §2, §3, §4, §5, §6
HepG2 were incubated with the test compound for 24 h at 37°C in the presence of 5% CO2. A vehicle control (0.07% sodium bicarbonate) was included.
Cells embedded in CometChip were placed on ice and irradiated with 0, 0.9, 1.8, 3.6, 5.4, 7.2 and 9 Gy of gamma rays from a Cs 137 radiation source with a dose rate of 0.9 Gy/min. The irradiated cells were submerged into lysis buffer overnight and the alkaline CometChip assay performed as described above.

CYP1A2 [3] = molecular target: T1, CYP1A2 (Homo sapiens, UniProt P05177); type: cell-based; settings: human
T1 sequence (P05177 whole entry): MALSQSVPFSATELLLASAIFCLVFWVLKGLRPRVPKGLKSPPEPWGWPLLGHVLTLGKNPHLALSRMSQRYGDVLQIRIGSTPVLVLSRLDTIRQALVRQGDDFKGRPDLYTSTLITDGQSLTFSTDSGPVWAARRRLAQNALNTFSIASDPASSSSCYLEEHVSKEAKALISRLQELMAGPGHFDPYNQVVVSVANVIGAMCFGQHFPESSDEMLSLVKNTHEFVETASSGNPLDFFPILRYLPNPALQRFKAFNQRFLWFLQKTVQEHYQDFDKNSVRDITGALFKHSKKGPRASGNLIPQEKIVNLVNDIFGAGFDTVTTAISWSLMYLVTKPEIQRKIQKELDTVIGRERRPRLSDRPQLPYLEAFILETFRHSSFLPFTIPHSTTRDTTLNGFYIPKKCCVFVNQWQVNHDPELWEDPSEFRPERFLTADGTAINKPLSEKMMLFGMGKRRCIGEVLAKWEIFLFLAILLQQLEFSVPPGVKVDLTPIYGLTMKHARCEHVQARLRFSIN
Description: (§7) The CYP450-Glo™ CYP3A4 assay with luciferin-IPA (V9001) and the CYP450-Glo™ CYP1A2 assay with luciferin-1A2 (V8421) were purchased from Promega, Madison, WI. The activity levels of CYP3A4 and CYP1A2 in cells were measured according to the manufacturer's protocol for non-lytic cell-based assays. Luminescent signals were recorded using a SpectraMax M2e microplate reader (Molecular Devices, Sunnyvale, CA, USA). Control wells with no cells were included to obtain background luminescence. The net signal for each sample was obtained by subtracting the background luminescence value.
(§8) CYP3A4 or CYP1A2 activity per cell can be obtained by normalizing CYP450-Glo™ values with cell numbers. After a sample was analyzed for CYP3A4 or CYP1A2 activity, the CTG® assay was performed to obtain an estimate of the number of viable cells in the sample. The result from CYP450-Glo™ was then divided by the CTG® value to obtain the average CYP3A4 or CYP1A2 activity per cell.

CYP1A2 [4] = molecular target: T1, CYP1A2; type: cell-based; design: The activity levels of CYP3A4 and CYP1A2 in cells were measured according to the manufacturer's protocol for non-lytic cell-based assays; endogenous in cells; host or cells: HepG2; settings: human
Description: as §7, §8

HepaRG™ cells [5] = type: cell-based, human
Description: The CTG® luminescent cell viability assay kit (G7570) was obtained from Promega, Madison, WI. Cell viability after 24 h of chemical treatment was measured according to the manufacturer's instructions. Luminescent signals were recorded using a SpectraMax M2e microplate reader (Molecular Devices, Sunnyvale, CA, USA) at room temperature. The emission bracket was from 360 to 750 nm. Control wells with no cells were included to obtain background luminescence, which was then subtracted from the signal measured in the sample wells.

[6] = 1 mM HU and 10 μM AraC, 24 h, doses with statistically significant result
[7] = 1 mM HU and 10 μM AraC, 24 h exposure

What does the source list for `Cc1ccc(N)cc1N` [2,4-DAT, 2,4-Diaminotoluene]?
Alkaline CometChip HepaRG (+ HU + AraC) ‘+’ dose range (HepaRG™ cells [1]; [6]): 10 mM; Genotoxicity Alkaline CometChip HepaRG (+ HU + AraC) +/− (HepaRG™ cells [1]; [7]): +; Genotoxicity Alkaline CometChip HepaRG +/− (HepaRG™ cells [1]; without HU/AraC, 24 h exposure): −; Carcinogenicity IARC classification [2]: Group 2B

Which “DNA damage by inhibitor alone” value (HepaRG™ cells [1]) does the source give for `O=c1cc(-c2ccccc2)oc2c1ccc1ccccc12` [ANF, α-Naphthoflavone] here?
The value was “does not induce DNA damage”.

What about the “Level of B[a]P-induced SSBs in the presence of ANF” value (HepaRG™ cells [1]) of the same molecule?
The value was “near background levels”.

What about the “DNA damage by inhibitor alone” value (HepG2 cells) of the same molecule?
Its value is “does not induce DNA damage”.

And the “Level of B[a]P-induced SSBs in the presence of ANF” value (HepG2 cells)?
The value was “near background levels”.

What about the “B[a]P induction of CYP1A2 in the presence of ANF” value (CYP1A2 [3]) of the same molecule?
The value was “induction of CYP1A2 is prevented”.

And the “DNA damage by inhibitor alone” value (TK6 cells)?
The value was “does not induce DNA damage”.

What about the “B[a]P induction of CYP1A2 in the presence of ANF” value (CYP1A2 [4]) of the same molecule?
Its value is “induction of CYP1A2 is prevented”.

With `O=C(N[C@H](CO)[C@H](O)c1ccc([N+](=O)[O-])cc1)C(Cl)Cl` [CAM, Chloramphenicol] as the molecule, how does the “Alkaline CometChip HepaRG (+ HU + AraC) ‘+’ dose range” value (HepaRG™ cells [1]; [6]) read?
Its value is 3.1 mM.

What about the “Cytotoxicity” value (HepaRG™ cells [5]; HepaRG, 24 h, CTG) of the same molecule?
Its value is “high levels of cytotoxicity”.

What does the source list for `O=P1(N(CCCl)CCCl)NCCCO1` (centres unmarked) [CP, Cyclophosphamide monohydrate]?
DNA damage score (HepaRG™ cells [1]): positives; Genotoxicity Alkaline CometChip HepaRG (+ HU + AraC) +/− (HepaRG™ cells [1]): +; Genotoxicity Alkaline CometChip HepaRG +/− (HepaRG™ cells [1]): −; Alkaline CometChip HepaRG (+ HU + AraC) ‘+’ dose range (HepaRG™ cells [1]; human): 5 to 10 mM

For `N.N.[Cl][Pt][Cl]` [Cisplatin, cis-Diamineplatinum(II) dichloride], which “DNA damage score” value (HepaRG™ cells [1]; HepaRG, using HU/AraC, 24 h) is on record?
Its value is “negative results”.

And the “Carcinogenicity IARC classification” value [2]?
The value was “Group 2A”.

Which results are given for `COc1cc([C@@H]2c3cc4c(cc3[C@@H](O[C@@H]3O[C@@H]5CO[C@@H](C)O[C@H]5[C@H](O)[C@H]3O)[C@H]3COC(=O)[C@H]23)OCO4)cc(OC)c1O` [Etoposide]?
Genotoxicity Alkaline CometChip HepaRG (+ HU + AraC) +/− (HepaRG™ cells [1]): +; Genotoxicity Alkaline CometChip HepaRG +/− (HepaRG™ cells [1]): −

With `OO` [H2O2] as the molecule, how does the “Comets on alkaline CometChip (comet tails)” value (TK6 cells; TK6 cells, 50 μM H2O2) read?
The value was “visibly large tails”.

Which results are given for `Oc1ccc(O)cc1` [HQ, Hydroquinone]?
Genotoxicity Alkaline CometChip HepaRG (+ HU + AraC) +/− (HepaRG™ cells [1]): +; Genotoxicity Alkaline CometChip HepaRG +/− (HepaRG™ cells [1]): −; Alkaline CometChip HepaRG (+ HU + AraC) ‘+’ dose range (HepaRG™ cells [1]; human): 0.33 mM; Cytotoxicity (HepaRG™ cells [5]): high levels of cytotoxicity

Which “DNA damage by inhibitor alone” value (HepaRG™ cells [1]) does the source give for `CC(=O)N1CCN(c2ccc(OCC3COC(Cn4ccnc4)(c4ccc(Cl)cc4Cl)O3)cc2)CC1` (centres unmarked) [KET, Ketoconazole] here?
The value was “does not induce DNA damage”.

And the “Level of AFB1-induced SSBs in the presence of KET” value (HepaRG™ cells [1])?
Its value is “reduced to near background levels”.

What about the “DNA damage by inhibitor alone” value (HepG2 cells) of the same molecule?
Its value is “does not induce DNA damage”.

And the “DNA damage by inhibitor alone” value (TK6 cells)?
Its value is “does not induce DNA damage”.

With `CN(C)N=O` [NDMA, N-Nitrosodimethylamine] as the molecule, how does the “Alkaline CometChip HepaRG (+ HU + AraC) ‘+’ dose range” value (HepaRG™ cells [1]; [6]) read?
The value was 2.5 to 20 mM.

And the “Genotoxicity Alkaline CometChip HepaRG (+ HU + AraC) +/−” value (HepaRG™ cells [1]; [7])?
Its value is “+”.

What about the “DNA damage score” value (HepaRG™ cells [1]; HepaRG, in the absence of HU/AraC, 24 h) of the same molecule?
Its value is “positive result”.

And the “Alkaline CometChip HepaRG ‘+’ dose range” value (HepaRG™ cells [1]; without HU/AraC, 24 h, doses with statistically significant result)?
Its value is 2.5 to 20 mM.

What about the “Genotoxicity Alkaline CometChip HepaRG +/−” value (HepaRG™ cells [1]; without HU/AraC, 24 h exposure) of the same molecule?
The value was “+”.

And the “Carcinogenicity IARC classification” value [2]?
Its value is “Group 2A”.

Which “DNA damage score” value (HepaRG™ cells [1]; HepaRG, using HU/AraC, 24 h) does the source give for `Nc1ccc(Cl)cc1` [PCA, p-Chloroaniline] here?
Its value is “negative results”.

And the Cell death (HepaRG™ cells [5]; HepaRG, highest dose (5 mM), 24 h)?
The Cell death was roughly 50%.

What about the “Carcinogenicity IARC classification” value [2] of the same molecule?
Its value is “Group 2B”.

Which “DNA damaging potential” value (HepG2 cells; HepG2, 24 h, absence vs presence of 1 mM HU and 10 μM AraC) does the source give for `C[C@H]1[C@H](OC(=O)CCC(=O)O)O[C@@H]2O[C@@]3(C)CC[C@H]4[C@H](C)CC[C@@H]1[C@@]24OO3` [artesunate, Artesunate] here?
The value was “HU/AraC reveals a wider range of genotoxic artesunate doses”.

For Aflatoxin B1 [AFB1], which “SSBs, dose-response” value (HepaRG™ cells [1]) is on record?
The value was “strong dose-response relationship”.

And the “Average % Tail DNA” value (HepG2 cells)?
Its value is 21.9% and 33.4%.

And the “SSBs, dose-response” value (HepG2 cells)?
The value was “relatively small increase in SSBs”.

And the “SSBs, response” value (TK6 cells)?
Its value is “no response”.

Source: paper PMC7026589, “Sensitive CometChip assay for screening potentially carcinogenic DNA adducts by trapping DNA repair intermediates” (Nucleic Acids Research, 2019)
